Measured values: PubChem BioAssay AID2060600 (Molecular Pharmacology Branch, DTP, NCI, 2025)

Tested on: 996289-038-R-J1-PDC complex spheroid viability
Experiment: Anticancer human tumor 996289-038-R-J1-PDC patient-derived colon adenocarcinoma cell line growth inhibition [CLK]
Details: for IC50: curve of first compound; for viability, T/C: stronger effect = lower value
Procedure, shortened: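 Patient-derived tumor cells grown as complex spheroids with HUVEC endothelial cells and mesenchymal stem cells, treated with drug combinations. Concentrations descend in half-log steps from near clinical Cmax, or from 10 microM if Cmax unknown.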

[1] = second compound 0.0316 µM, first compound 0.0316 µM
[2] = second compound 0.0316 µM, first compound 0.1 µM
[3] = second compound 0.0316 µM, first compound 0.316 µM
[4] = second compound 0.0316 µM, first compound 1 µM
[5] = second compound 0.1 µM, first compound 0.0316 µM
[6] = second compound 0.1 µM, first compound 0.1 µM
[7] = second compound 0.1 µM, first compound 0.316 µM
[8] = second compound 0.1 µM, first compound 1 µM
[9] = second compound 0.316 µM, first compound 0.0316 µM
[10] = second compound 0.316 µM, first compound 0.1 µM
[11] = second compound 0.316 µM, first compound 0.316 µM
[12] = second compound 0.316 µM, first compound 1 µM
[13] = second compound 1 µM, first compound 0.0316 µM
[14] = second compound 1 µM, first compound 0.1 µM
[15] = second compound 1 µM, first compound 0.316 µM
[16] = second compound 1 µM, first compound 1 µM
[17] = second compound 3.16 µM, first compound 0.0316 µM
[18] = second compound 3.16 µM, first compound 0.1 µM
[19] = second compound 3.16 µM, first compound 0.316 µM
[20] = second compound 3.16 µM, first compound 1 µM
[21] = second compound 10 µM, first compound 0.0316 µM
[22] = second compound 10 µM, first compound 0.1 µM
[23] = second compound 10 µM, first compound 0.316 µM
[24] = second compound 10 µM, first compound 1 µM
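Further: spheroids exposed to the agents for 7 days before readout.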

C=CC(=O)Nc1cc(Nc2nccc(-c3cn(C)c4ccccc34)n2)c(OC)cc1N(C)CCN(C)C + CN1CCN(c2cc(C(=O)Nc3cc4cc(-c5cnn(C)c5)ccc4cn3)ccn2)CC1
IC50 (second compound 0.0316 µM): > 300 nM
IC50 (second compound 0.1 µM): > 300 nM
IC50 (second compound 0.316 µM): 91 nM
IC50 (second compound 1 µM): < 0.949 nM
IC50 (second compound 3.16 µM): < 0.949 nM
IC50 (second compound 10 µM): < 0.949 nM
viability, T/C (second compound 0.0316 µM, first compound 0.000949 µM): 104%
viability, T/C (second compound 0.0316 µM, first compound 0.003 µM): 104%
viability, T/C (second compound 0.0316 µM, first compound 0.00949 µM): 105%
viability, T/C (second compound 0.0316 µM, first compound 0.03 µM): 103%
viability, T/C (second compound 0.0316 µM, first compound 0.0949 µM): 99.8%
viability, T/C (second compound 0.0316 µM, first compound 0.3 µM): 74.7%
viability, T/C (second compound 0.1 µM, first compound 0.000949 µM): 93.7%
viability, T/C (second compound 0.1 µM, first compound 0.003 µM): 93.7%
viability, T/C (second compound 0.1 µM, first compound 0.00949 µM): 91.2%
viability, T/C (second compound 0.1 µM, first compound 0.03 µM): 84.4%
viability, T/C (second compound 0.1 µM, first compound 0.0949 µM): 86%
viability, T/C (second compound 0.1 µM, first compound 0.3 µM): 65.9%
viability, T/C (second compound 0.316 µM, first compound 0.000949 µM): 74.2%
viability, T/C (second compound 0.316 µM, first compound 0.003 µM): 69%
viability, T/C (second compound 0.316 µM, first compound 0.00949 µM): 63.5%
viability, T/C (second compound 0.316 µM, first compound 0.03 µM): 56.8%
viability, T/C (second compound 0.316 µM, first compound 0.0949 µM): 53.5%
viability, T/C (second compound 0.316 µM, first compound 0.3 µM): 37.2%
viability, T/C (second compound 1 µM, first compound 0.000949 µM): 6.28%
viability, T/C (second compound 1 µM, first compound 0.003 µM): 6.22%
viability, T/C (second compound 1 µM, first compound 0.00949 µM): 7.21%
viability, T/C (second compound 1 µM, first compound 0.03 µM): 6.93%
viability, T/C (second compound 1 µM, first compound 0.0949 µM): 4.43%
viability, T/C (second compound 1 µM, first compound 0.3 µM): 1.67%
viability, T/C (second compound 3.16 µM, first compound 0.000949 µM): 0.79%
viability, T/C (second compound 3.16 µM, first compound 0.003 µM): 1.11%
viability, T/C (second compound 3.16 µM, first compound 0.00949 µM): 1.16%
viability, T/C (second compound 3.16 µM, first compound 0.03 µM): 1.29%
viability, T/C (second compound 3.16 µM, first compound 0.0949 µM): 0.93%
viability, T/C (second compound 3.16 µM, first compound 0.3 µM): 0.71%
viability, T/C (second compound 10 µM, first compound 0.000949 µM): 1.47%
viability, T/C (second compound 10 µM, first compound 0.003 µM): 0.58%
viability, T/C (second compound 10 µM, first compound 0.00949 µM): 0.99%
viability, T/C (second compound 10 µM, first compound 0.03 µM): 1.04%
viability, T/C (second compound 10 µM, first compound 0.0949 µM): 0.51%
viability, T/C (second compound 10 µM, first compound 0.3 µM): 1.04%

CC(Nc1ccc2c(c1)OCCn1cc(N3C(=O)OCC3C(F)F)nc1-2)C(N)=O (stereo unspecified) + CN1CCN(c2cc(C(=O)Nc3cc4cc(-c5cnn(C)c5)ccc4cn3)ccn2)CC1
IC50 (second compound 0.0316 µM): 3170 nM
IC50 (second compound 0.1 µM): 1100 nM
IC50 (second compound 0.316 µM): 158 nM
IC50 (second compound 1 µM): < 31.6 nM
IC50 (second compound 3.16 µM): < 31.6 nM
IC50 (second compound 10 µM): < 31.6 nM
viability, T/C [1]: 88.1%
viability, T/C [2]: 84.9%
viability, T/C [3]: 71.8%
viability, T/C [4]: 60.5%
viability, T/C (second compound 0.0316 µM, first compound 3.16 µM): 52.2%
viability, T/C (second compound 0.0316 µM, first compound 10 µM): 37.2%
viability, T/C [5]: 91.5%
viability, T/C [6]: 77.3%
viability, T/C [7]: 62.1%
viability, T/C [8]: 50.6%
viability, T/C (second compound 0.1 µM, first compound 3.16 µM): 41.6%
viability, T/C (second compound 0.1 µM, first compound 10 µM): 31.2%
viability, T/C [9]: 62%
viability, T/C [10]: 50.9%
viability, T/C [11]: 46%
viability, T/C [12]: 35.6%
viability, T/C (second compound 0.316 µM, first compound 3.16 µM): 35.9%
viability, T/C (second compound 0.316 µM, first compound 10 µM): 21.9%
viability, T/C [13]: 2.6%
viability, T/C [14]: 2.53%
viability, T/C [15]: 2.23%
viability, T/C [16]: 1.58%
viability, T/C (second compound 1 µM, first compound 3.16 µM): 1.47%
viability, T/C (second compound 1 µM, first compound 10 µM): 1.4%
viability, T/C [17]: 3.59%
viability, T/C [18]: 0.97%
viability, T/C [19]: 1.63%
viability, T/C [20]: 1.51%
viability, T/C (second compound 3.16 µM, first compound 3.16 µM): 1.33%
viability, T/C (second compound 3.16 µM, first compound 10 µM): 1.96%
viability, T/C [21]: 1.51%
viability, T/C [22]: 0.78%
viability, T/C [23]: 1.23%
viability, T/C [24]: 0.65%
viability, T/C (second compound 10 µM, first compound 3.16 µM): 0.6%
viability, T/C (second compound 10 µM, first compound 10 µM): 0.47%

CCN1CCN(Cc2ccc(Nc3ncc(F)c(-c4cc(F)c5nc(C)n(C(C)C)c5c4)n3)nc2)CC1 + CN1CCN(c2cc(C(=O)Nc3cc4cc(-c5cnn(C)c5)ccc4cn3)ccn2)CC1
IC50 (second compound 0.0316 µM): > 1000 nM
IC50 (second compound 0.1 µM): > 1000 nM
IC50 (second compound 0.316 µM): 753 nM
IC50 (second compound 1 µM): < 3.16 nM
IC50 (second compound 3.16 µM): < 3.16 nM
IC50 (second compound 10 µM): < 3.16 nM
viability, T/C (second compound 0.0316 µM, first compound 0.00316 µM): 95.8%
viability, T/C (second compound 0.0316 µM, first compound 0.01 µM): 97.3%
viability, T/C [1]: 82.6%
viability, T/C [2]: 82.5%
viability, T/C [3]: 79.7%
viability, T/C [4]: 76.8%
viability, T/C (second compound 0.1 µM, first compound 0.00316 µM): 101%
viability, T/C (second compound 0.1 µM, first compound 0.01 µM): 85.7%
viability, T/C [5]: 86.4%
viability, T/C [6]: 81.4%
viability, T/C [7]: 68.8%
viability, T/C [8]: 71%
viability, T/C (second compound 0.316 µM, first compound 0.00316 µM): 64.8%
viability, T/C (second compound 0.316 µM, first compound 0.01 µM): 62.5%
viability, T/C [9]: 58.7%
viability, T/C [10]: 53.4%
viability, T/C [11]: 51.3%
viability, T/C [12]: 50.8%
viability, T/C (second compound 1 µM, first compound 0.00316 µM): 6.12%
viability, T/C (second compound 1 µM, first compound 0.01 µM): 6.14%
viability, T/C [13]: 7.95%
viability, T/C [14]: 8.35%
viability, T/C [15]: 10.1%
viability, T/C [16]: 2.91%
viability, T/C (second compound 3.16 µM, first compound 0.00316 µM): 1.14%
viability, T/C (second compound 3.16 µM, first compound 0.01 µM): 1.05%
viability, T/C [17]: 0.74%
viability, T/C [18]: 1.08%
viability, T/C [19]: 1.2%
viability, T/C [20]: 2.28%
viability, T/C (second compound 10 µM, first compound 0.00316 µM): 0.58%
viability, T/C (second compound 10 µM, first compound 0.01 µM): 0.55%
viability, T/C [21]: 0.57%
viability, T/C [22]: 0.88%
viability, T/C [23]: 0.37%
viability, T/C [24]: 0.53%
